How the values were obtained:
PDE-4B1 = PDE-4B1 (Homo sapiens, UniProt Q07343); experiment: Lance cAMP assay, PDE-4B1 inhibition; type: biochemical; conditions: PDE4B1 0.18 nM, 20 nM cAMP, 90 min room temperature
Procedure: (§1) Experimental Methods: Lance cAMP Assay:
(§2) Test samples were precisely weighed, added to and dissolved in DMSO, mixed sufficiently so as to reach 100 μM. The above mother solution was then diluted with DMSO to reach 1 μM, and then diluted 4 times to reach 0.0038 nM.
(§3) To 384 well plate were added 2.5 μl of substrate 20 nM cAMP and 50 nl of compound DMSO solution, then added 2.5 μl of PDE enzyme (PDE4B1 0.18 nM, PDE4D3 0.024 nM) buffer solution (1×HBSS, 5 mM Hepes pH 7.4, 3 mM MgCl2, 0.1% BSA). After incubation at room temperature for 90 min, 5 μl of Alexa Fluor® 647-anti cAMP antibody was added and incubated for 30 min, 10 μl of detection reagent was added and incubated for 60 min, then its LANCE signal was detected under 665 nm, inhibition rate was calculated by the following formulation, and IC50 values were calculated from inhibition rate using XLfit. Inhibition rate=[signal value (MAX)−signl value (sample)]×100/[signal value (MAX)−signal value (MIN)]
(§4) Notation: MAX: blank control without enzyme; MIN: blank control without compound.

PDE-4D3 = PDE-4D3 (Homo sapiens, UniProt Q08499); experiment: Lance cAMP assay, PDE-4D3 inhibition; type: biochemical; conditions: PDE4D3 0.024 nM, 20 nM cAMP, 90 min room temperature
Procedure: as §1, §2, §3, §4

TNF-α = experiment: Inhibition activity of TNF-α in whole blood test (LPS-stimulated, ELISA); type: cell-based; conditions: human whole blood diluted 1:1 with DPBS, lipopolysaccharide 100 ng/ml, overnight
Procedure: Experiment 2: Measurement of Inhibition Activity of TNF-α in Whole Blood Test
Fresh blood was collected from health human body using heparin sodium tubes. In Grade II Bio-safety Cabinet, whole blood was diluted in the ratio of 1:1 with DPBS (Dulbecco's Phosphate Buffered Saline). 100 μl of the diluted blood samples were taken and added to each of wells of a 96-well plate. 0.5 μl of compound solution was added to each well. The compound was formulated with dimethyl sulfoxide. The 96-well plate was placed in CO2 incubator and incubated for 30 min, then lipopolysaccharide in final concentration of 100 ng/ml was added, and incubated overnight. The 96-well plate was shaked for homogenization, and from each well 10 μl of solution was taken and transferred to another 96-well plate for ELISA to measure TNF-α content. The following formula was used to calculate inhibition rate, and the inhibition rate was used for calculation of IC50 value with XLfit. Inhibition rate=[signal value (MAX)−signal value (sample)]×100/[signal value (MAX)−signal value (MIN)]
Notation: MAX represents blank control stimulated with only lipopolysaccharide; MIN represents positive control with 1 μmol/l of dexamethasone.

PDE4D, PDE4B = conditions: some studies have shown; cited from earlier work

Sequence of PDE-4D3 (Q08499 1-673 isoform Q08499-2): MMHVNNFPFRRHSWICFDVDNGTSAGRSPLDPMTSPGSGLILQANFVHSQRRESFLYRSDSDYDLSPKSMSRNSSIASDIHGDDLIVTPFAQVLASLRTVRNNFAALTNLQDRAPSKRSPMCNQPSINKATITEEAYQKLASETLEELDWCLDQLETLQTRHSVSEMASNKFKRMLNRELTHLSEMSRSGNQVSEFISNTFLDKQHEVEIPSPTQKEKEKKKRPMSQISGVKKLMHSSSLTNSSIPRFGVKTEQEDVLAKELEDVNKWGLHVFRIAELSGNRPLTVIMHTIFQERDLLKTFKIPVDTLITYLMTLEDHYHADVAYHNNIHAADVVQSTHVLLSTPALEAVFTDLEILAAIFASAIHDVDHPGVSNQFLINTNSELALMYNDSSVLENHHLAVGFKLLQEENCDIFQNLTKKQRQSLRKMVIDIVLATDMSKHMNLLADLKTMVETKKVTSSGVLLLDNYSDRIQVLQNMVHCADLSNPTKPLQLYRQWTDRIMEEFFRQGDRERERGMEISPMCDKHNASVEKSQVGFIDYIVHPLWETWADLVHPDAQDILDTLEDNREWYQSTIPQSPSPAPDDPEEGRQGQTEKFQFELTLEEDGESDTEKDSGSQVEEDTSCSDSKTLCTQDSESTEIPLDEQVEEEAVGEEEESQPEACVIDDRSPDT
Sequence of PDE-4B1 (Q07343 whole entry, species assumed): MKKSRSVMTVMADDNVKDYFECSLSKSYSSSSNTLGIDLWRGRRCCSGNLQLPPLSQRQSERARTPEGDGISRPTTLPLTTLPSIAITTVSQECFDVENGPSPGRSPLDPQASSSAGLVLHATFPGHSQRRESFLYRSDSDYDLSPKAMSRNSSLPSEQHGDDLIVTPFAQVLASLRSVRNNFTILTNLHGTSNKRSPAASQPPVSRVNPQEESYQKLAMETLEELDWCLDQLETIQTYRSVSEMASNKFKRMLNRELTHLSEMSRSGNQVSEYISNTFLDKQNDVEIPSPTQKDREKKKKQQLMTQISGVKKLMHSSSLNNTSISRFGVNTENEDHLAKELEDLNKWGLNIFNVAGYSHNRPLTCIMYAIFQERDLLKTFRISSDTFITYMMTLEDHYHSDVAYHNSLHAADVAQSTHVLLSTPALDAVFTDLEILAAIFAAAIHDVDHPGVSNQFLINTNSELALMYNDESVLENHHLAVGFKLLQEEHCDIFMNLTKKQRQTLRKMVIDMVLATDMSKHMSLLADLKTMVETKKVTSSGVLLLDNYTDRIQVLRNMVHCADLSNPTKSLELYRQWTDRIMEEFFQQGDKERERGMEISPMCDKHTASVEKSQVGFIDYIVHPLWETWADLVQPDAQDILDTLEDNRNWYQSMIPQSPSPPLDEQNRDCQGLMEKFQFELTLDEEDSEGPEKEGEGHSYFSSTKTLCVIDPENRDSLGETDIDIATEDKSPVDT

Row | Compound | IC50 (PDE-4B1) | IC50 (PDE-4D3) | IC50 (TNF-α) | activity to PDE4D compared with activity to PDE4B (PDE4D, PDE4B)
1 | O=C(NC1CC1)c1nn(-c2cccc(C#Cc3cccnc3)c2)c2ncccc2c1=O [Compound 1, N-cyclopropyl-4-oxo-1-[3-(pyridin-3-ylethynyl)phenyl]-1,4-dihydropyridino[2,3-c]pyridazine-3-formamide] | 2.68 nM | 2.19 nM | 51 nM | 
2 | O=C(NC1CC1)c1nn(-c2cccc(Sc3cccnc3)c2)c2ncccc2c1=O [Compound 2, N-cyclopropyl-4-oxo-1-[3-(pyridin-3-ylthio)phenyl]-1,4-dihydropyridino[2,3-c]pyridazine-3-carboxamide] | 161 nM | 250 nM |  | 
3 | O=C(NC1CC1)c1nn(-c2cccc(Oc3cccnc3)c2)c2ncccc2c1=O [Compound 3, N-cyclopropyl-4-oxo-1-(3-(pyridin-3-yloxy)phenyl)-1,4-dihydropyridino[2,3-c]pyridazine-3-carboxamide] | 305 nM | 358 nM |  | 
4 | C[C@@H]1C[C@H]2[C@@H]3CCC4=CC(=O)C=C[C@]4(C)[C@@]3(F)[C@@H](O)C[C@]2(C)[C@@]1(O)C(=O)CO [Dexamethasone, reference compound] |  |  | 3.3 nM | 
5 | O=C(NC1CC1)c1cn(-c2cccc(C#Cc3ccc[n+]([O-])c3)c2)c2ncccc2c1=O [MK-0873, reference compound] | 5.59 nM | 4.58 nM | 40.3 nM | 
6 | O=C(NC1CC1)c1nn(-c2cccc(C#Cc3ccc[n+]([O-])c3)c2)c2ncccc2c1=O [Nitrogen oxide of Compound 1, 3-[[3-[3-(cyclopropylcarbamoyl)-4-oxo-pyridino[2,3-c]pyridazine-1(4H)-yl]phenyl]ethynyl]pyridine-1-oxide] | 28.1 nM | 18.9 nM | 109 nM | 
7 | O=C(NC1CC1)c1nn(-c2cccc(Oc3ccc[n+]([O-])c3)c2)c2ncccc2c1=O [Nitrogen oxide of Compound 3] | 526 nM | 643 nM |  | 
8 | Cilomilast |  |  |  | 10 time
9 | Roflumilast |  |  |  | equivalent activity
